Test results published in patent publication US9206130B2, “Quinoline derivatives as AXL kinase inhibitors” (Max-Planck-Gesellschaft zur Förderung der Wissenschaften …, priority 2008, dated 2015).
pIC50: −log10 of the molar value.

Assays:
[1] = target: T1, wild type AXL (wtAXL) receptor tyrosine kinase (Homo sapiens, UniProt P30530); experiment: NIH-3T3-AXL cellular tyrosine kinase assay (inhibition of AXL phosphorylation); assay type: cell-based; conditions: AXL phosphorylation in NIH-3T3-AXL (clone 22) cells, serum-depleted, 2 h with compound, immunoprecipitation / anti-phosphotyrosine blot
T1 construct: WtAXL cDNA was cloned into vector pLXSN(ESK) and transfected into Phoenix E packaging cells; expressed in transfected cells; host or cells: NIH3T3 N7 mouse fibroblasts, retrovirally infected (clone 22)
T1 sequence (P30530 26-894): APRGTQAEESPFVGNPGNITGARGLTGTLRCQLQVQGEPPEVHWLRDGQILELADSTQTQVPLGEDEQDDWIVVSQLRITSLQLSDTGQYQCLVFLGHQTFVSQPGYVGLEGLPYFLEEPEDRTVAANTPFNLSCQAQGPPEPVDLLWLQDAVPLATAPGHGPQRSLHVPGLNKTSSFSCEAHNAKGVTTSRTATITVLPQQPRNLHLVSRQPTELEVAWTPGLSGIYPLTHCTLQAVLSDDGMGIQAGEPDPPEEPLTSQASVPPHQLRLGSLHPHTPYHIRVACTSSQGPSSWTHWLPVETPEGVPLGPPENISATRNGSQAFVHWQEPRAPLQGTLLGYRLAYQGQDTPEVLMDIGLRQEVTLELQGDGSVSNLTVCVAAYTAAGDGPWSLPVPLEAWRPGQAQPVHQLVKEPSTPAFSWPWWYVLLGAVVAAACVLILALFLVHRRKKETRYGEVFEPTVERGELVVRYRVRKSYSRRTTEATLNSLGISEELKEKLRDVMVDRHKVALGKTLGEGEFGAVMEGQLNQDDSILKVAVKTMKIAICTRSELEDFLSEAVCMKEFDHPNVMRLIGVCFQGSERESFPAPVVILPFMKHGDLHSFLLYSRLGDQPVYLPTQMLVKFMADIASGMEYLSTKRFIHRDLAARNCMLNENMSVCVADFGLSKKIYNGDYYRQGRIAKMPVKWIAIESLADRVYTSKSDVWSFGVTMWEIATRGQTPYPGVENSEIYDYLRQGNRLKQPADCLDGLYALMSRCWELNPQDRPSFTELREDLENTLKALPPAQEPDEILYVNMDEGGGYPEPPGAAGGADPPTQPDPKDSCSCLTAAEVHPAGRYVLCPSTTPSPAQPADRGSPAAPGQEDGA
Method in brief: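 NIH3T3 clones stably expressing human wtAXL (puromycin-selected) were exposed to serially diluted compounds for 2 h. AXL was immunoprecipitated from lysates with anti-AXL antibody, and phosphorylation detected by anti-phosphotyrosine (4G10) western blot with ECL.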

Q: With `Cc1cc(Oc2ccc(NS(=O)(=O)c3cc(Cl)cc(Cl)c3)c(F)c2)c2cccc(C(F)(F)F)c2n1` [Example C01, 3,5-Dichloro-N-[2-fluoro-4-(2-methyl-8-trifluoromethyl-quinolin-4-yloxy)-phenyl]-benzenesulfonamide] as the molecule, how does the pIC50 [1] read?
A: The pIC50 was under 5.00.

Q: And the melting point?
A: Its melting point is 181 to 183 °C.

Q: With `Cc1cc(Oc2ccc(NS(=O)(=O)c3cccc(-c4ccccc4)c3)c(F)c2)c2cccc(C(F)(F)F)c2n1` [Example C02, Biphenyl-3-sulfonic acid [2-fluoro-4-(2-methyl-8-trifluoromethyl-quinolin-4-yloxy)-phenyl]-amide] as the molecule, how does the pIC50 [1] read?
A: The pIC50 was under 5.00.

Q: What about the melting point of the same molecule?
A: Its melting point is 187 to 188 °C.

Q: With `Cc1cc(Oc2ccc(NS(=O)(=O)c3cccc(Oc4ccccc4)c3)c(F)c2)c2cccc(C(F)(F)F)c2n1` [Example C03, N-[2-Fluoro-4-(2-methyl-8-trifluoromethyl-quinolin-4-yloxy)-phenyl]-3-phenoxy-benzenesulfonamide] as the molecule, how does the pIC50 [1] read?
A: The pIC50 was under 5.00.

Q: And the melting point?
A: The melting point was 167 to 168 °C.

Q: With `Cc1cc(Oc2ccc(NS(=O)(=O)c3cccc4ccccc34)c(F)c2)c2cccc(C(F)(F)F)c2n1` [Example C04, Naphthalene-1-sulfonic acid [2-fluoro-4-(2-methyl-8-trifluoromethyl-quinolin-4-yloxy)-phenyl]-amide] as the molecule, how does the pIC50 [1] read?
A: The pIC50 was under 5.00.

Q: And the melting point?
A: Its melting point is 232 to 234 °C.

Q: Which results are given for `Cc1cc(Oc2ccc(NS(=O)(=O)c3cc(Cl)ccc3Cl)c(F)c2)c2cccc(C(F)(F)F)c2n1` [Example C05, 2,5-Dichloro-N-[2-fluoro-4-(2-methyl-8-trifluoromethyl-quinolin-4-yloxy)-phenyl]-benzenesulfonamid]?
A: pIC50 [1]: < 5.00; melting point: 207 to 209 °C

Q: With `Cc1cc(Oc2ccc(NS(=O)(=O)c3c(Cl)cccc3Cl)c(F)c2)c2cccc(C(F)(F)F)c2n1` [Example C06, 2,6-Dichloro-N-[2-fluoro-4-(2-methyl-8-trifluoromethyl-quinolin-4-yloxy)-phenyl]-benzenesulfonamide] as the molecule, how does the pIC50 [1] read?
A: Its pIC50 is under 5.00.

Q: And the melting point?
A: Its melting point is 171 to 173 °C.

Q: With `Cc1cc(Oc2ccc(NS(=O)(=O)c3ccccc3C(F)(F)F)c(F)c2)c2cccc(C(F)(F)F)c2n1` [Example C07, N-[2-Fluoro-4-(2-methyl-8-trifluoromethyl-quinolin-4-yloxy)-phenyl]-2-trifluoromethyl-benzenesulfonamid] as the molecule, how does the pIC50 [1] read?
A: Its pIC50 is under 5.00.

Q: And the melting point?
A: The melting point was 183 to 185 °C.

Q: What does the source list for `COc1ccc(S(=O)(=O)Nc2ccc(Oc3cc(C)nc4c(C(F)(F)F)cccc34)c(F)c2)c2ccccc12` [Example C08, 4-Methoxy-naphthalene-1-sulfonic acid [3-fluoro-4-(2-methyl-8-trifluoromethyl-quinolin-4-yloxy)-phenyl]-amide]?
A: pIC50 [1]: < 5.00; melting point: 242 to 244 °C

Q: With `COc1ccc(S(=O)(=O)Nc2ccc(Oc3cc(C)nc4c(C(F)(F)F)cccc34)c(F)c2)cc1F` [Example C09, 3-Fluoro-N-[3-fluoro-4-(2-methyl-8-trifluoromethyl-quinolin-4-yloxy)-phenyl]-4-methoxy-benzenesulfonamide] as the molecule, how does the pIC50 [1] read?
A: The pIC50 was under 5.00.

Q: And the melting point?
A: Its melting point is 128 to 130 °C.

Q: Which results are given for `COc1cc(C)c(C)cc1S(=O)(=O)Nc1ccc(Oc2cc(C)nc3c(C(F)(F)F)cccc23)c(F)c1` [Example C10, N-[3-Fluoro-4-(2-methyl-8-trifluoromethyl-quinolin-4-yloxy)-phenyl]-2-methoxy-4,5-dimethyl-benzenesulfonamide]?
A: pIC50 [1]: < 5.00; melting point: 230 to 232 °C

Q: Which results are given for `Cc1cc(Oc2ccc(NS(=O)(=O)c3cc(F)ccc3F)c(F)c2)c2cccc(C(F)(F)F)c2n1` [Example C11, 2,5-Difluoro-N-[2-fluoro-4-(2-methyl-8-trifluoromethyl-quinolin-4-yloxy)-phenyl]-benzenesulfonamide]?
A: pIC50 [1]: < 5.00; melting point: 179 to 181 °C

Q: With `Cc1cc(Oc2ccc(NS(=O)(=O)c3ccc(F)c(Cl)c3)c(F)c2)c2cccc(C(F)(F)F)c2n1` [Example C12, 3-Chloro-4-fluoro-N-[2-fluoro-4-(2-methyl-8-trifluoromethyl-quinolin-4-yloxy)-phenyl]-benzenesulfonamide] as the molecule, how does the pIC50 [1] read?
A: The pIC50 was under 5.00.

Q: And the melting point?
A: The melting point was 202 to 203 °C.

Q: With `Cc1cc(Oc2ccc(NS(=O)(=O)c3cnc(C)[nH]3)cc2F)c2cccc(C(F)(F)F)c2n1` [Example C13, 2-Methyl-3H-imidazole-4-sulfonic acid [3-fluoro-4-(2-methyl-8-trifluoromethyl-quinolin-4-yloxy)-phenyl]-amide] as the molecule, how does the pIC50 [1] read?
A: The pIC50 was under 6.00.

Q: And the melting point?
A: Its melting point is 258 to 259 °C.

Q: What does the source list for `Cc1cc(Oc2ccc(NS(=O)(=O)c3ccc(OCc4c(C)noc4C)cc3)cc2F)c2cccc(C(F)(F)F)c2n1` [Example C14, 4-(3,5-Dimethyl-isoxazol-4-ylmethoxy)-N-[3-fluoro-4-(2-methyl-8-trifluoromethyl-quinolin-4-yloxy)-phenyl]-benzenesulfonamide]?
A: pIC50 [1]: < 5.00; melting point: 193 to 195 °C

Q: With `Cc1cc(Oc2ccc(NS(=O)(=O)c3ccc(-c4ccccc4)cc3)c(F)c2)c2cccc(C(F)(F)F)c2n1` [Example C15] as the molecule, how does the pIC50 [1] read?
A: Its pIC50 is under 5.00.

Q: What about the melting point of the same molecule?
A: Its melting point is 215 to 217 °C.

Q: Which results are given for `Cc1cc(Oc2ccc(NS(=O)(=O)c3cccc(-c4ncccn4)c3)c(F)c2)c2cccc(C(F)(F)F)c2n1` [Example C16, N-[2-Fluoro-4-(2-methyl-8-trifluoromethyl-quinolin-4-yloxy)-phenyl]-3-pyrimidin-2-yl-benzenesulfonamide]?
A: pIC50 [1]: < 5.00; melting point: 219 to 220 °C

Q: What does the source list for `Cc1cc(Oc2ccc(NS(=O)(=O)c3cc4ccccc4s3)c(F)c2)c2cccc(C(F)(F)F)c2n1` [Example C17, Benzo[b]thiophene-2-sulfonic acid [2-fluoro-4-(2-methyl-8-trifluoromethyl-quinolin-4-yloxy)-phenyl]-amide]?
A: pIC50 [1]: < 5.00; melting point: 182 to 184 °C

Q: With `Cc1cc(Oc2ccc(NS(=O)(=O)c3csc4ccccc34)c(F)c2)c2cccc(C(F)(F)F)c2n1` [Example C18, Benzo[b]thiophene-3-sulfonic acid [2-fluoro-4-(2-methyl-8-trifluoromethyl-quinolin-4-yloxy)phenyl]-amide] as the molecule, how does the pIC50 [1] read?
A: Its pIC50 is under 5.00.

Q: What about the melting point of the same molecule?
A: Its melting point is 242 to 244 °C.

Q: With `Cc1cc(Oc2ccc(NS(=O)(=O)c3ccc4c(c3)CC(=O)N4C)c(F)c2)c2cccc(C(F)(F)F)c2n1` [Example C19, 1-Methyl-2-oxo-2,3-dihydro-1H-indole-5-sulfonic acid [2-fluoro-4-(2-methyl-8-trifluoro-methyl-quinolin-4-yloxy)-phenyl]-amide] as the molecule, how does the pIC50 [1] read?
A: The pIC50 was under 5.00.

Q: And the melting point?
A: The melting point was 225 to 226 °C.

Q: With `COc1cc2c(Oc3ccc(NS(=O)(=O)c4cccc(-c5ccccc5)c4)c(F)c3)ccnc2cc1OCc1ccccc1` [Example D01, Biphenyl-3-sulfonic acid [4-(7-benzyloxy-6-methoxy-quinolin-4-yloxy)-2-fluoro-phenyl]-amide] as the molecule, how does the pIC50 [1] read?
A: The pIC50 was under 5.00.

Q: And the melting point?
A: Its melting point is 228 to 229 °C.

Q: With `COc1cc2c(Oc3ccc(NS(=O)(=O)c4cccc(-c5ccccc5)c4)cc3F)ccnc2cc1OCCN1CCOCC1` [Example D04, Biphenyl-3-sulfonic acid {3-fluoro-4-[6-methoxy-7-(2-morpholin-4-yl-ethoxy)-quinolin-4-yloxy]-phenyl}-amide] as the molecule, how does the pIC50 [1] read?
A: Its pIC50 is 6.49.

Q: What about the melting point of the same molecule?
A: Its melting point is 103 to 104 °C.
